Structures are written as SMILES.

The source of these data is publication PMC11545999, “Angular-Substituted [1,4]Thiazino[3,4-a]Isoquinolines: Biological Evaluation and In Silico Studies on DPP-IV Inhibition” (International Journal of Molecular Sciences, 2024).

T1 sequence (P27487 39-766): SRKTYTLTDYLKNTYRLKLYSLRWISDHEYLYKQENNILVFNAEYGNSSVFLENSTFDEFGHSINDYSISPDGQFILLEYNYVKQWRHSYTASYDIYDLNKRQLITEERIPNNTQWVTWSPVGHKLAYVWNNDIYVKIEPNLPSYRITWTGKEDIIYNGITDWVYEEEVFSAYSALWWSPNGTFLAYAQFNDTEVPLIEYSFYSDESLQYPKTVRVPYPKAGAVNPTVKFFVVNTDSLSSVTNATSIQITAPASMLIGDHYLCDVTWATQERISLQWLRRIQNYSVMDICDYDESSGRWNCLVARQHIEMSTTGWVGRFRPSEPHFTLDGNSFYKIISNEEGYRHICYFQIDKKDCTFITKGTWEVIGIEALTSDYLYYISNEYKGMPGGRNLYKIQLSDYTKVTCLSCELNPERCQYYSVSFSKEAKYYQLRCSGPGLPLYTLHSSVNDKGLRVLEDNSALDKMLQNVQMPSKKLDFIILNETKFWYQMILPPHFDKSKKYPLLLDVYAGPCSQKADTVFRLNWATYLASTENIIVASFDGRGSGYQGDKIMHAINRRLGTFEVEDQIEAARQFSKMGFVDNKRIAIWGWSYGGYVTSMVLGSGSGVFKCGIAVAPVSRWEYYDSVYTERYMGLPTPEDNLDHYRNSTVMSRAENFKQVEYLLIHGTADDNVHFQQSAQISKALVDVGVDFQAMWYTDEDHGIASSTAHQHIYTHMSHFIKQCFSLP

This assay has as its target T1, DPP-IV (Homo sapiens, UniProt P27487).
T1 construct: gene DPP4
As to the kind of experiment: fluorogenic AMC substrate cleavage assay (SensoLyte AMC DPP-IV Assay Kit). The format is biochemical.
In the case of `COc1cc2c(cc1OC)C1C(C(=O)O)SCC(=O)N1CC2` (stereo not drawn) [4a], the IC50 stood at 41.1 µM.

Molecule `COc1cc2c(cc1OC)[C@@]1(c3ccc(F)cc3)[C@@H](C(=O)O)SCC(=O)N1CC2` (relative stereo) [4g] had an IC50 of 0.35 µM. This IC50 is about 120-fold lower than that of the molecule before.

On to `COc1cc2c(cc1OC)[C@@]1(c3ccc(C(F)(F)F)cc3)[C@@H](C(=O)O)SCC(=O)N1CC2` (relative stereo) [4f], for which inhibition was half-maximal at 15.9 µM (IC50).

The IC50 is the point on the concentration scale where inhibition reaches its midpoint.
